According to patent US9796706B2, “Inhibitors of Jun N-terminal kinase” (IMAGO PHARMACEUTICALS, INC., priority 2009, dated 2017):
pIC50: −log10 of the molar value.

What was measured:
Format in all cases: biochemical
Conditions in all cases: procedures of Example 14 (TR-FRET)
JNK3 = JNK3 (Homo sapiens (Human), UniProt P53779); assay: JNK3 TR-FRET kinase assay (Example 14)
Protocol: (§1) 14.3. Active JNK 1, 2 and 3 TR-FRET Assay
(§2) (1) Assay buffer #1 with 0.0025% Tween and 1 mM DTT was prepared using JNK buffer stock solution.
(§3) (2) Assay buffer #2 with 0.025% BSA was prepared using the assay buffer #1.
(§4) (3) Test compound solution preparation: 5× compound solution was prepared using assay buffer #1 with 5% DMSO. The compound solution (10 μl/well) was added to a 384-well plate (Corning, Cat No. 3654).
(§5) (4) aJNK1, 2 or 3 preparation: aJNK stock (100 μg/ml) at −80° C. was thawed on ice and an aJNK (1.6 ng/ml) solution was prepared using assay buffer #2. The aJNK solution (20 μl/well) was added to the plate and the plate was shaken. The enzyme was incubated with the compound at RT for 10 min. (5) ATP/substrate solution preparation: ATP and substrate stocks were thawed on ice. 2.5×ATP/substrate (e.g., 25 μM or 2.5 mM ATP/50 nM EPIW-1) was prepared using assay buffer #1. The ATP/substrate (20 μl/well) was added to the plate and the plate was shaken. The plate was incubated at RT for 15 min. Note: In an exemplary assay, the final ATP concentration was about 1 mM. (6) EDTA preparation: 30 mM EDTA was prepared using 0.5M EDTA stock and assay buffer #1. The EDTA (10 μl/well) was added to the plate to quench the enzyme reaction and the plate was shaken well. (7) Detection reagent preparation: Eu-63 and SA-XL stocks were thawed on ice. 4× Eu-63/SA-XL (2 nM Eu-63/9.4 nM SA-XL) was prepared using JNK detection buffer. The Eu-63/SA-XL solution (20 μl/well) was added to the plate and the plate was shaken. The plate was incubated at RT for 1 hr before reading the plate on LJL using ratiometric method named HTRF.
(§6) 14.4. Coupled JNK 1, 2 and 3 TR-FRET Assay
(§7) (1) Assay buffer with 0.0025% Tween, 0.01% BSA, and 1 mM DTT was prepared using JNK buffer stock solution.
(§8) (2) Test compound solution preparation: 5× compound solution, including EDTA background, was prepared using assay buffer with 5% DMSO. The compound solution (10 μl/well) was added to a 384-well plate (Corning, Cat No. 3654).
(§9) (3) uJNK1,2, or 3 activation reaction preparation: uJNK activation solution was prepared using assay buffer (1.6 ng/ml MKK4, 1.6 ng/ml MKK7, 16 ng/ml uJNK, and 20 uM ATP final). The uJNK activation solution (35 μl/well) was added to the plate, the plate was shaken, and the reaction mixture was incubated with compound at 30° C. for 60 min. (4) c-Jun substrate solution preparation: 50 nM EPIW-1, c-Jun peptide, was prepared using assay buffer (15 nM final). The EPIW-1 solution (15 μl/well) was added to the plate, the plate was shaken and incubated at 30° C. for 60 min. (5) EDTA preparation: 30 mM EDTA was prepared using 0.5M EDTA stock and assay buffer. The EDTA (10 μl/well) was added to the plate to quench the enzyme reaction and the plate was shaken well. (6) Detection reagent preparation: Eu-73 and SA-XL stocks were thawed on ice. 4× Eu-73/SA-XL (2 nM Eu-73/9.4 nM SA-XL) were prepared using JNK detection buffer. The Eu-73/SA-XL solution (20 μl/well) was added to the plate. The plate was shaken and incubated at RT for 1 hr before reading the plate on LJL using ratiometric method named HTRF.

JNK1 = JNK1 (Homo sapiens (Human), UniProt P45983); assay: JNK1 TR-FRET kinase assay (Example 14)
Sequence of JNK1 (P45983 other isoform, or with tags, fused parts or gaps isoform P45983-2, species assumed): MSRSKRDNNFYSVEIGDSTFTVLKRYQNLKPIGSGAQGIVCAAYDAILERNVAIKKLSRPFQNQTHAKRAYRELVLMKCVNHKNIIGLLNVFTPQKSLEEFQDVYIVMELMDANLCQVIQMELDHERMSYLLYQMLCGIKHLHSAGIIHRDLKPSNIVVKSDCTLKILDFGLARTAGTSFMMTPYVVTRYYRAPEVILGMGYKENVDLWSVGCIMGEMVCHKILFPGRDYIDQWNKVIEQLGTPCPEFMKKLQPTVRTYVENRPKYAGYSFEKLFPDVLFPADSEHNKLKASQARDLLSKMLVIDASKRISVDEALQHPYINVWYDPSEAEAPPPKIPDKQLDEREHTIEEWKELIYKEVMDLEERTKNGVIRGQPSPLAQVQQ
Protocol: as §1, §2, §3, §4, §5, §6, §7, §8, §9

JNK2 = JNK2 (Homo sapiens (Human), UniProt P45984); assay: JNK2 TR-FRET kinase assay (Example 14)
Sequence of JNK2 (P45984 whole entry, species assumed): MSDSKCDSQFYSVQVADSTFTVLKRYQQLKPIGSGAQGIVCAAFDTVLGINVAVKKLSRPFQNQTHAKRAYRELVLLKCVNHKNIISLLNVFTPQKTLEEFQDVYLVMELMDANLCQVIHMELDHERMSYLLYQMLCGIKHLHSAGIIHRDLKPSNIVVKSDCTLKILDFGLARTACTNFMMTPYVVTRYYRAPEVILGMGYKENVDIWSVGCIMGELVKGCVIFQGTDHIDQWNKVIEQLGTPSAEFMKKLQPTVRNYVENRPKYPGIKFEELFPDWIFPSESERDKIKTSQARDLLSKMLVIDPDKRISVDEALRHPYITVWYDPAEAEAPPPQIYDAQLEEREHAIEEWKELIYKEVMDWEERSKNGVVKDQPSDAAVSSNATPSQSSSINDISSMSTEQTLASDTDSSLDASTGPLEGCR
Protocol: as §1, §2, §3, §4, §5, §6, §7, §8, §9

Sequence of JNK3 (P53779 whole entry, species assumed): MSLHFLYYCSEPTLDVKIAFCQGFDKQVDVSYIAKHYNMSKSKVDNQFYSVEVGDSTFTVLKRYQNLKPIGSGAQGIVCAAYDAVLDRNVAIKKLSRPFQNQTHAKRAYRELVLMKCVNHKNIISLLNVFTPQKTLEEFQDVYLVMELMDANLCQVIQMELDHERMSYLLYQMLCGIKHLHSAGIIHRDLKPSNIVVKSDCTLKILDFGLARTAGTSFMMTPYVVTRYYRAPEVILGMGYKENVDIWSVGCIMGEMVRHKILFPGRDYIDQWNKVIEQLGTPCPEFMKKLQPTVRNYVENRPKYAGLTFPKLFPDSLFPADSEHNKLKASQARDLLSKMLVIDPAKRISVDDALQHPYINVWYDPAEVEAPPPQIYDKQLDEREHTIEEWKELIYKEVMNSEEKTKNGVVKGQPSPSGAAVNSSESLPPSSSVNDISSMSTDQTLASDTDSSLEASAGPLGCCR

Row | pIC50 (JNK3) | pIC50 (JNK1) | pIC50 (JNK2) | SMILES
1 | 5.00 to 7.00 | 5.00 to 7.00 | < 5.00 | O=C(Cc1cccc2cnccc12)Nc1ccsc1-c1csc(Cl)n1 [N-(2-(2-chlorothiazol-4-yl)thiophen-3-yl)-2-(isoquinolin-5-yl)acetamide]
2 | 5.00 to 7.00 | 5.00 to 7.00 | 5.00 to 7.00 | O=C(Cc1cccc2cnccc12)Nc1scnc1-c1cnccn1 [2-(isoquinolin-5-yl)-N-(4-(pyrazin-2-yl)thiazol-5-yl)acetamide]
3 | < 5.00 | < 4.30 | < 4.30 | COc1ccc(CC(=O)Nc2ccsc2N2CCOC2=O)cc1 [2-(4-methoxyphenyl)-N-(2-(2-oxooxazolidin-3-yl)thiophen-3-yl)acetamide]
4 | > 7.00 | > 7.00 | 5.00 to 7.00 | O=C(Cc1cccc2cnccc12)Nc1scnc1-c1cscn1 [N-(4,4′-bithiazol-5-yl)-2-(isoquinolin-5-yl)acetamide]
5 | 5.00 to 7.00 | 5.00 to 7.00 | < 5.00 | O=C(CN1C(=O)CCc2ccccc21)Nc1ccsc1-c1c[nH]cn1 [N-(2-(1H-imidazol-4-yl)thiophen-3-yl)-2-(2-oxo-3,4-dihydroquinolin-1(2H)-yl)acetamide]
6 | 5.00 to 7.00 | 5.00 to 7.00 | 5.00 to 7.00 | O=C(Cc1cccc2cnccc12)Nc1ccsc1-c1nccs1 [2-(isoquinolin-5-yl)-N-(2-(thiazol-2-yl)thiophen-3-yl)acetamide]
7 | 5.00 to 7.00 | 5.00 to 7.00 | 5.00 to 7.00 | Cc1n[nH]c(-c2sccc2NC(=O)Cc2ccc3c(c2)OCCO3)n1 [2-(2,3-dihydrobenzo[b][1,4]dioxin-6-yl)-N-(2-(3-methyl-1H-1,2,4-triazol-5-yl)thiophen-3-yl)acetamide]
8 | 5.00 to 7.00 | 5.00 to 7.00 | 5.00 to 7.00 | O=C(CN1C(=O)CCc2cnccc21)Nc1ccsc1-c1cscn1 [2-(2-oxo-3,4-dihydro-1,6-naphthyridin-1(2H)-yl)-N-(2-(thiazol-4-yl)thiophen-3-yl)acetamide]
9 | 5.00 to 7.00 | > 7.00 | 5.00 to 7.00 | O=C(Cc1cccc2cc(F)cnc12)Nc1scc(Br)c1-c1nc[nH]n1 [N-(4-bromo-3-(1H-1,2,4-triazol-3-yl)thiophen-2-yl)-2-(3-fluoroquinolin-8-yl)acetamide]
10 | > 7.00 | > 7.00 | > 7.00 | O=C(Cn1c(=O)ccc2ncccc21)Nc1scc(Br)c1-c1ncn[nH]1 [N-(4-bromo-3-(1H-1,2,4-triazol-5-yl)thiophen-2-yl)-2-(2-oxo-1,5-naphthyridin-1(2H)-yl)acetamide]
11 | > 7.00 | > 7.00 | > 7.00 | N#Cc1csc(NC(=O)Cn2c(=O)ccc3cc(C(F)(F)F)ccc32)c1-c1ncco1 [N-(4-cyano-3-(oxazol-2-yl)thiophen-2-yl)-2-(2-oxo-6-(trifluoromethyl)quinolin-1(2H)-yl)acetamide]
12 | 5.00 to 7.00 | > 7.00 | 5.00 to 7.00 | O=C(Cc1cc2ncccc2cc1F)Nc1scc(Br)c1-c1ncn[nH]1 [N-(4-bromo-3-(1H-1,2,4-triazol-5-yl)thiophen-2-yl)-2-(6-fluoroquinolin-7-yl)acetamide]
13 | 5.00 to 7.00 | 5.00 to 7.00 | 5.00 to 7.00 | Cc1csc(NC(=O)Cc2ccc(OCCCN3CCCCC3)cc2)c1-c1ncn[nH]1 [N-(4-methyl-3-(1H-1,2,4-triazol-5-yl)thiophen-2-yl)-2-(4-(3-(piperidin-1-yl)propoxy)phenyl)acetamide]
14 | 5.00 to 7.00 | 5.00 to 7.00 | 5.00 to 7.00 | COc1ccc(CC(=O)Nc2ccsc2-n2nccn2)cc1 [N-(2-(2H-1,2,3-triazol-2-yl)thiophen-3-yl)-2-(4-methoxyphenyl)acetamide]
15 | 5.00 to 7.00 | 5.00 to 7.00 | 5.00 to 7.00 | O=C(Cc1ccc2ccc(C(F)(F)F)nc2c1)Nc1scc(Br)c1-c1nc[nH]n1 [N-(4-bromo-3-(1H-1,2,4-triazol-3-yl)thiophen-2-yl)-2-(2-(trifluoromethyl)quinolin-7-yl)acetamide]
16 | 5.00 to 7.00 | 5.00 to 7.00 | 5.00 to 7.00 | O=C(CN1C(=O)CCc2ccc(Br)cc21)Nc1scc(Br)c1-c1ncn[nH]1 [2-(7-bromo-2-oxo-3,4-dihydroquinolin-1(2H)-yl)-N-(4-bromo-3-(1H-1,2,4-triazol-5-yl)thiophen-2-yl)acetamide]

Row | pIC50 (JNK3) | pIC50 (JNK1) | pIC50 (JNK2) | SMILES
17 |  |  | 5.00 to 7.00 | COc1ccc(CC(=O)Nc2ccsc2-c2nc(N)n[nH]2)cc1 [N-(2-(3-amino-1H-1,2,4-triazol-5-yl)thiophen-3-yl)-2-(4-methoxyphenyl)acetamide]
18 |  |  | < 5.00 | COc1ccc(CC(=O)Nc2ccsc2-c2ncco2)cc1 [2-(4-methoxyphenyl)-N-(2-(oxazol-2-yl)thiophen-3-yl)acetamide]
19 |  |  | < 4.30 | COc1ccc(CC(=O)Nc2sccc2-c2nn[nH]n2)cc1 [N-(3-(2H-tetrazol-5-yl)thiophen-2-yl)-2-(4-methoxyphenyl)-acetamide]
20 | > 7.00 | > 7.00 |  | Cc1csc(NC(=O)CN2C(=O)CCc3ccccc32)c1-c1ncn[nH]1 [N-(4-methyl-3-(1H-1,2,4-triazol-5-yl)thiophen-2-yl)-2-(2-oxo-3,4-dihydroquinolin-1(2H)-yl)acetamide]
21 |  |  | < 4.30 | Cc1noc(-c2sccc2NC(=O)Cc2cccc3ccccc23)n1 [N-(2-(3-methyl-1,2,4-oxadiazol-5-yl)thiophen-3-yl)-2-(naphthalen-1-yl)acetamide]
22 |  |  | < 4.30 | O=C(Cc1cccc2ccccc12)Nc1ccsc1-c1cc[nH]n1 [N-(2-(1H-pyrazol-3-yl)thiophen-3-yl)-2-(naphthalen-1-yl)acetamide]
23 |  |  | < 4.30 | Cc1cc(-c2sccc2NC(=O)Cc2cccc3ccccc23)n[nH]1 [N-(2-(5-methyl-1H-pyrazol-3-yl)thiophen-3-yl)-2-(naphthalen-1-yl)acetamide]
24 |  |  | 5.00 to 7.00 | O=C(Cc1ccc2c(c1)OCCO2)Nc1ccsc1-c1ncn[nH]1 [N-(2-(1H-1,2,4-triazol-5-yl)thiophen-3-yl)-2-(2,3-dihydrobenzo[b][1,4]dioxin-6-yl)acetamide]
25 | 5.00 to 7.00 |  |  | Cc1nnc(-c2c(C)csc2NC(=O)Cc2ccc(-c3ccncc3)cc2)[nH]1 [N-(4-methyl-3-(5-methyl-4H-1,2,4-triazol-3-yl)thiophen-2-yl)-2-(4-(pyridin-4-yl)phenyl)acetamide]
26 | 5.00 to 7.00 |  | 5.00 to 7.00 | O=C(Cc1cccc2cccnc12)Nc1scc(Br)c1-c1ncn[nH]1 [N-(4-bromo-3-(1H-1,2,4-triazol-5-yl)thiophen-2-yl)-2-(quinolin-8-yl)acetamide]
27 |  |  | 5.00 to 7.00 | Cc1csc(NC(=O)Cc2cccc3ncccc23)c1-c1ncn[nH]1 [N-(4-methyl-3-(1H-1,2,4-triazol-5-yl)thiophen-2-yl)-2-(quinolin-5-yl)acetamide]
28 | 5.00 to 7.00 |  |  | O=C(Cc1cccc2ccccc12)Nc1ccsc1-c1ccccn1 [2-(2-pyridyl)-3-(1-naphthylacetylamino)thiophene]
29 |  |  | 5.00 to 7.00 | Cc1n[nH]c(-c2sccc2NC(=O)Cc2ccc(N3CCCC3=O)cc2)n1 [N-(2-(3-methyl-1H-1,2,4-triazol-5-yl)thiophen-3-yl)-2-(4-(2-oxopyrrolidin-1-yl)phenyl)acetamide]
30 |  |  | 5.00 to 7.00 | COc1ccc(CC(=O)Nc2ccsc2-c2nc(C)n[nH]2)cc1 [2-(4-methoxyphenyl)-N-(2-(3-methyl-1H-1,2,4-triazol-5-yl)thiophen-3-yl)acetamide]
31 |  |  | 5.00 to 7.00 | Cn1ncnc1-c1ncsc1NC(=O)Cc1cccc2cnccc12 [2-(isoquinolin-5-yl)-N-(4-(1-methyl-1H-1,2,4-triazol-5-yl)thiazol-5-yl)acetamide]
